# Legend:
# cardiomyocytes = experiment: Cardiomyocyte proliferation effect assay (Edu / cTnI immunofluorescence of heart tissue), adult female SD rats; format: in vivo; conditions: tail vein injection 7 consecutive days, IGF1-24 100 μg/kg or molar equivalents, FIG. 1-2
# Experimental: In certain embodiments, adult female SD rats were divided into five groups: PBS group, IGF1 group, IGF1Ec group, IGF1-24 group, and IGF1+IGF1Ec24 peptide group, with three rats in each group. The rats in each group were distinguished by ear clipping for subsequent protein injection according to the different body weights of the rats.
# The rats in each group were injected with PBS, IGF1, IGF1Ec24 peptide, IGF1Ec and IGF1-24 for 7 consecutive days. Recombinant protein IGF1-24 was injected at 100 μg/kg, and the injection of the remaining proteins in each group was converted according to the molar amount of IGF1-24 injection as follows: 90 μg/kg for IGF1, 8.9 μg/kg for IGF1Ec24 peptide, 104 μg/kg for IGF1Ec.
# Before protein injection, the rats were first weighed with a bench scale, and their body weight and the amount of protein injected were recorded and converted; then the rats were fixed with a rat fixator and their tails were exposed, and their tails were soaked in hot water for 1-2 min to stretch the tail vessels and facilitate the search for blood vessels; then the tails were wiped with alcohol cotton balls; after the tail vein was identified, the needle was inserted into the vessel at a 45° angle to the tail vein and the drug was slowly pushed in; the needle before pressing the wound with cotton to stop the bleeding, and then pull out the needle. […]
# myocardial tissue = experiment: Myocardial injury repair in rat model of isoproterenol (ISO) myocardial injury; format: in vivo
# Experimental: The rats were randomly selected and assigned into injection and control groups, with three rats in each group. The myocardial injury model was constructed by injecting an overdose of ISO at a dose of 80 mg/kg. The rats were fixed with a fixator to expose the abdomen; the rats were disinfected by wiping with alcohol cotton balls, and the amount of ISO injected was matched to their body weight, and then the rats were injected intraperitoneally for 1 week.
# The rat was fixed with a fixator to keep its tail naturally down; before injection, the rat's tail was soaked in warm water for 3-4 min until the tail vein was seen clearly; then the rat's tail was wiped with an alcohol cotton ball for disinfection; then, when injecting the protein, the needle was injected at a minimal angle to the tail vein to keep it horizontal; after pushing the drug into the blood vessel, the wound was pressed with an alcohol cotton ball, and then the needle was withdrawn.
# In order to fully remove the paraffin from the top of the slices, Paraffin sections of myocardial tissues were completely immersed in xylene twice, each time for 15 min; then the paraffin sections of cardiac tissues were placed into 100% ethanol solution, 95% ethanol solution, 75% ethanol solution, 50% ethanol solution and 3dH2O in turn, with a soaking time of 10 min for each gradient. The paraffin sections were removed and hematoxylin was added dropwise at the myocardial tissue in the sections for nuclear staining with a staining time of 8 min. immediately after the staining was completed, the sections were rinsed with tap water for 5 min, then differentiation solution was added dropwise at the myocardial tissue in the sections with a differentiation time of 20 s, and finally the sections were rinsed with tap water for 5 min. the sections were removed and eosin staining solution was added dropwise at the tissue with a staining time of 1 min, and finally the sections were rinsed with tap water Rinse the slices for 5 min. soak the paraffin sections according to a gradient of 50%, 75%, 95% and 100% ethanol, each for 5 min; then soak them twice in xylene for 2 min/time. Paraffin sections were removed from xylene, keeping xylene still retained on the sections; neutral gum was quickly added dropwise, and coverslips were picked up with forceps, and the coverslips were put down slowly.
# The sections were soaked in xylene twice for 15 min/time; soaked sequentially according to a gradient of anhydrous ethanol, 95%, 75% and 50% alcohol solutions, each gradient for 5 min; finally the sections were soaked in triple distilled water for 5 min. equal amounts of Weigert iron hematoxylin A solution and B solution were mixed, and the mixture was added dropwise to the tissues, stained The sections were removed, and differentiation solution was added dropwise to the myocardial tissue for 20 s, and rinsed with tap water for 5 min. bluing solution was added dropwise to the tissue of the sections, and returned to blue treatment for 5 min, and rinsed with tap water for 5 min. lixin red magenta staining solution was added dropwise to the tissue of the sections, and staining time was 1 min, and rinsed with tap water for 5 min. 20% of Add phosphomolybdic acid solution dropwise on the tissue, stain for 5 min, pour off the phosphomolybdic acid solution on the section. Aniline blue staining solution was added dropwise for 5 min to re-stain the sections, and the aniline blue solution on the sections was poured off. […]
substance,measurement,setting,value
"IGF1-24: 97 amino acids: amino-terminal 70 identical to IGF1, carboxyl-terminal 24 identical to IGFEc24 peptide, joined by three Gly linkers (SEQ ID NO: 4)",number of Edu-positive cardiomyocytes,cardiomyocytes,2.6%
same,Masson staining: area of cardiac fibrosis,"myocardial tissue; ISO+IGF1-24-treated group vs ISO-injured group, FIG. 12",significantly reduced
same,HE staining of cardiac tissue: repair effect,"myocardial tissue; ISO+IGF1-24 group compared with ISO+PBS group, FIG. 10",the repair effect was obvious
same,rate of PH3 positive cells in myocardial tissue,"myocardial tissue; after ISO injury and IGF1-24 treatment, injury without treatment 0.1%, FIG. 13A-B",0.8%
same,rate of Edu positive cells in myocardial tissue,"myocardial tissue; after ISO injury and IGF1-24 treatment, injury without treatment 0.5%, FIG. 13A-B",1.4%
same,number of Ki67-positive cells (immunohistochemistry of heart tissue),"myocardial tissue; treatment group vs injury group, FIG. 13C",differed significantly

# — patent publication US20230073755A1, “USE OF IGF1 IN COMBINATION WITH IGFEC24 IN PREPARATION OF MEDICINE FOR PROMOTING TISSUE REPAIR AND REGENERATION” (Chongqing University, priority 2020, published 2023)
